{"source": "patent US20260102407A1", "about": "“TREATMENT METHODS” (priority 2020, published 2026)", "key": {"CD31": {"tested_on": "CD31", "assay": "Immunohistochemical staining of rat retina, CD31", "assay_type": "in vivo", "settings": "lasered rat eyes 21 days after injury", "text": "Rat choroidal laser injury model. Male Brown Norway pigmented rats (8-14 week-old) were anesthetized by an intramuscular injection of Rompun® (xylazine)/Imalgene® (ketamine). Pupils were dilated by instillation of one drop of 0.5% tropicamide before laser burn. Six burns were created in both eyes on Day 0 by applying 170 mW of 532 nm laser light (Viridis laser, Quantel, France) on 75 μm spots around the optic nerve, between the main retinal vessel branches, for 0.1s, through the slit lamp and contact lens. Production of a bubble at the time of laser application confirmed the rupture of Bruch's membrane. […] After anaesthesia, 10% sodium fluorescein (250 μl/100 g body weight) was injected subcutaneously, and ocular fluorescence was recorded 10 min after dye injection. Fluorescein leakage was evaluated on Days 14 and 21 in the angiograms by two examiners masked to the study groups and graded for fluorescein intensity as follows: score 0: no leakage; 1: slightly stained; 2: moderately stained; 3: strongly stained.\nImmunohistochemical staining of rat retina. […] IOD of positive staining (red chromogen) was assessed for CD31, VEGF-A165, pERK, FosB and VCAM-1 using Image-Pro Plus software (Cybernetics, Bethesda, MD). IOD in IPL and INL was quantified for CD31; OPL to OS for VEGF-A165; INL to ONL for pERK; GCL to OS for FosB; OLM for VCAM-1, using Image-Pro Plus. […]"}, "ICAM-1": {"tested_on": "ICAM-1", "assay": "Collagen antibody-induced arthritis, hind limb immunohistochemistry for ICAM-1", "assay_type": "in vivo, mouse", "settings": "CAIA mice; Day 14 hind limbs", "experimental": "Collagen antibody-induced arthritis. Arthritis was induced in female Balb/c mice (6-8 week-old) as previously described with a commercially obtained cocktail of 5 monoclonal antibodies to type II collagen at 2 mg/mouse (Chondrex, Inc. Redmond, WA) followed by LPS (50 μg/mouse) with or without BT2 (3 or 30 mg/kg mouse) in DMSO vehicle was administered i.p. on Day 3. Hind footpad thickness was measured on Day 9 using digital calipers. Mice were sacrificed on Day 14 and microCT scanning of hind limbs was performed.\nImmmunohistochemical staining of hind limbs for VCAM-1 and ICAM-1 and analysis. Formalin-fixed, paraffin embedded of hind limbs were sectioned (5 μm). Dako EnVision Rabbit Kit (cat. K4011, Dako) was used for immmunohistochemical staining for VCAM-1 and ICAM-1. […] Integrated optical density (IOD) of positive staining in ankle joint (tibia and talus) articular cartilage was assessed for VCAM-1 and ICAM-1 using Image-Pro Plus software (Cybernetics, Bethesda, MD, USA). Area (μm^2) of ankle joint articular cartilage was measured using Image-Pro Plus software. Total cell number and positive staining cell number in ankle joint articular cartilage were counted manually using Image-Pro Plus software. […]"}, "rabbits": {"tested_on": "rabbits", "assay": "GLP ocular tolerance study, single intravitreal injection", "assay_type": "in vivo, rabbit", "settings": "single intravitreal injection 10 μg/50 μl, after 28 days"}}, "data": [{"compound": "CCOC(=O)Nc1ccc2c(c1)C(=O)N(CC)c1ccccc1O2", "note": "[BT2, (10-ethyl-11-oxo-10,11-dihydro-dibenzo[b,f][1,4]oxazepin-2-yl)-carbamic acid ethyl ester]", "values": [{"measurement": "inducible CD31 staining in the IPL and INL", "setting": "CD31", "value": "inhibited inducible CD31 staining"}, {"measurement": "ICAM-1 expression in bone", "setting": "ICAM-1", "value": "inhibit VCAM-1 and ICAM-1 expression"}, {"measurement": "ocular tolerance", "setting": "rabbits", "value": "well tolerated macroscopically and histologically"}]}]}
